This passage reports IC50 and EC50 results from patent publication US6569882B2, “Bis-sulfonamide hydroxyethyl-amino retroviral protease inhibitors” (G. D. Searle & Co., priority 1995, dated 2003).

One experiment concerns the target T1, HIV protease (Human immunodeficiency virus type 1 group M subtype B, UniProt P04585).
T1 construct: HIV protease is diluted in the assay buffer to a final enzyme concentration of 12.3 nanomolar, based on a molecular weight of 10,780
The experiment in a line: HIV protease enzyme assay (fluorescence, peptide substrate). Format: biochemical. Conditions: concentration reducing enzyme activity by 50%; substrate 80 μM, enzyme 12.3 nanomolar, pH 6.4. The source says: The compounds of the present invention are effective HIV protease inhibitors. Utilizing an enzyme assay as described below, the compounds set forth in the examples herein disclosed inhibited the HIV enzyme. The preferred compounds of the present invention and their calculated IC50 (inhibiting concentration 50%, i.e., the concentration at which the inhibitor compound reduces enzyme activity by 50%) values are shown in Table 16. The enzyme method is described below. The substrate is 2-Ile-Nle-Phe(p-NO2)-Gln-ArgNH2. The positive control is MVT-101 (Miller, M. et al, Science, 246, 1149 (1989)] The assay conditions are as follows:
20 mM sodium phosphate, pH 6.4
The above described substrate is dissolved in DMSO, then diluted 10 fold in assay buffer. Final substrate concentration in the assay is 80 μM.
HIV protease is diluted in the assay buffer to a final enzyme concentration of 12.3 nanomolar, based on a molecular weight of 10,780.
The final concentration of DMSO is 14% and the final concentration of glycerol is 18%. The test compound is dissolved in DMSO and diluted in DMSO to 10× the test concentration; 10 μl of the enzyme preparation is added, the materials mixed and then the mixture is incubated at ambient temperature for 15 minutes. The enzyme reaction is initiated by the addition of 40 μl of substrate. The increase in fluorescence is monitored at 4 time points (0, 8, 16 and 24 minutes) at ambient temperature. Each assay is carried out in duplicate wells.

Another experiment has as its system HIV-1 in CEM cells. The experiment is described as follows: CEM cell assay: HIV inhibition in acutely infected cells, tetrazolium (MTT) colorimetric. Conditions: Human immunodeficiency virus 1, CCRF-CEM, 168 h. It is filed as cell-based. On the procedure: The effectiveness of various compounds were determined in the above-described enzyme assay and in a CEM cell assay.
The HIV inhibition assay method of acutely infected cells is an automated tetrazolium based colorimetric assay essentially that reported by Pauwles et al, J. Virol. Methods, 20, 309-321 (1988). Assays were performed in 96-well tissue culture plates. CEM cells, a CD4+ cell line, were grown in RPMI-1640 medium (Gibco) supplemented with a 10% fetal calf serum and were then treated with polybrene (2 μg/ml). An 80 μl volume of medium containing 1×10^4 cells was dispensed into each well of the tissue culture plate. To each well was added a 100 μl volume of test compound dissolved in tissue culture medium (or medium without test compound as a control) to achieve the desired final concentration and the cells were incubated at 37° C. for 1 hour. A frozen culture of HIV-1 was diluted in culture medium to a concentration of 5×10^4 TCID50 per ml (TCID50=the dose of virus that infects 50% of cells in tissue culture), and a 20 μL volume of the virus sample (containing 1000 TCID50 of virus) was added to wells containing test compound and to wells containing only medium (infected control cells). Several wells received culture medium without virus (uninfected control cells). Likewise, the intrinsic toxicity of the test compound was determined by adding medium without virus to several wells containing test compound. In summary, the tissue culture plates contained the following experiments:
In experiments 2 and 4 the final concentrations of test compounds were 1, 10, 100 and 500 μg/ml. Either azidothymidine (AZT) or dideoxyinosine (ddI) was included as a positive drug control. […] DMSO was added to all control wells at an appropriate concentration.
Following the addition of virus, cells were incubated at 37° C. in a humidified, 5% CO2 atmosphere for 7 days. Test compounds could be added on days 0, 2 and 5 if desired. On day 7, post-infection, the cells in each well were resuspended and a 100 μl sample of each cell suspension was removed for assay. A 20 μL volume of a 5 mg/ml solution of 3-(4,5-dimethylthiazol-2-yl)-2,5-diphenyltetrazolium bromide (MTT) was added to each 100 μL cell suspension, and the cells were incubated for 4 hours at […] in a 5% CO2 environment. […] To each sample was added 100 μl of 10% sodium dodecylsulfate in 0.01 N HCl to lyse the cells, and samples were incubated overnight. The absorbance at 590 nm was determined for each sample using a Molecular Devices microplate reader. Absorbance values for each set of wells is compared to assess viral control infection, uninfected control cell response as well as test compound by cytotoxicity and antiviral efficacy.

[1] abbreviates: CEM cells acutely infected with HIV-1, 7 days, MTT readout, read-out: EC50.

Each structure is given as a SMILES string. Read-outs that look alike come from different tables or passages of the source.

As to `COc1ccc(S(=O)(=O)N(CC(C)C)C[C@@H](O)[C@H](Cc2ccccc2)NC(=O)[C@H](C)CS(=O)(=O)N2CCOCC2)cc1` [Example 1], inhibition against HIV protease was half-maximal at 10 nM (IC50). In the experiment with HIV-1 in CEM cells (setting [1]), the EC50 is 32 nM.
At HIV protease, `COc1ccc(S(=O)(=O)N(CC(C)C)C[C@@H](O)[C@H](Cc2ccccc2)NC(=O)[C@H](C)CS(=O)(=O)N2CCN(C)CC2)cc1` [Example 2] showed an IC50 of 8 nM. In the experiment with HIV-1 in CEM cells, this compound showed an EC50 of 77 nM.
For `COc1ccc(S(=O)(=O)N(CC(C)C)C[C@@H](O)[C@H](Cc2ccccc2)NC(=O)[C@H](C)CS(N)(=O)=O)cc1` [Example 3], the IC50 at HIV protease amounted to 6 nM. Moreover, the EC50 with HIV-1 in CEM cells turned out to be 40 nM.
Compound `COc1ccc(S(=O)(=O)N(CC(C)C)C[C@@H](O)[C@H](Cc2ccccc2)NC(=O)[C@H](C)CS(=O)(=O)N(C)C)cc1` [Example 4] yielded an IC50 against HIV protease of 4 nM. This compound gave an EC50 in the experiment on HIV-1 in CEM cells of 15 nM.
In turn, `COc1ccc(S(=O)(=O)N(CC(C)C)C[C@@H](O)[C@H](Cc2ccccc2)NC(=O)[C@H](C)CS(=O)(=O)N2CCCCC2)cc1` [Example 5] displayed an IC50 against HIV protease of 13 nM. In the experiment with HIV-1 in CEM cells, this compound came in with an EC50 of 210 nM.
For the compound `COc1ccc(S(=O)(=O)N(CC(C)C)C[C@@H](O)[C@H](Cc2ccccc2)NC(=O)[C@H](C)CS(=O)(=O)N(Cc2ccccc2)C(c2ccccc2)c2ccccc2)cc1` [Example 6], the IC50 at HIV protease came to 4 nM.
On HIV protease, `COc1ccc(S(=O)(=O)N(CC(C)C)C[C@@H](O)[C@H](Cc2ccccc2)NC(=O)[C@H](C)CS(=O)(=O)NCc2ccccc2)cc1` [Example 7] had an IC50 of 3 nM. Further, in the experiment on HIV-1 in CEM cells, it took 32 nM to reach a half-maximal effect (EC50).
`CC(C)CN(C[C@@H](O)[C@H](Cc1ccccc1)NC(=O)[C@H](C)CS(=O)(=O)N1CCNCC1)S(=O)(=O)c1ccc2c(c1)OCO2` [Example 8] showed an IC50 on HIV protease of 9 nM. The EC50 in the experiment on HIV-1 in CEM cells (setting [1]) turned out to be 415 nM.
On the same counts, the results for `CC(C)CN(C[C@@H](O)[C@H](Cc1ccccc1)NC(=O)[C@H](C)CS(=O)(=O)N1CCN(Cc2ccccc2)CC1)S(=O)(=O)c1ccc2c(c1)OCO2` [Example 9] are 6 nM and 84 nM.
In turn, `CC(C)CN(C[C@@H](O)[C@H](Cc1ccccc1)NC(=O)[C@H](C)CS(=O)(=O)N1CCN(Cc2ccccn2)CC1)S(=O)(=O)c1ccc2c(c1)OCO2` [Example 10] came in with an IC50 against HIV protease of 10 nM. In the experiment on HIV-1 in CEM cells (setting [1]), the EC50 came to 56 nM.
With `CC(C)CN(C[C@@H](O)[C@H](Cc1ccccc1)NC(=O)[C@H](C)CS(=O)(=O)N1CCN(Cc2cccnc2)CC1)S(=O)(=O)c1ccc2c(c1)OCO2` [Example 11], at HIV protease, the IC50 came to 9 nM.
In turn, `CC(C)CN(C[C@@H](O)[C@H](Cc1ccccc1)NC(=O)[C@H](C)CS(=O)(=O)N1CCN(Cc2ccncc2)CC1)S(=O)(=O)c1ccc2c(c1)OCO2` [Example 12] had an IC50 against HIV protease of 9 nM. The EC50 in the experiment with HIV-1 in CEM cells (setting [1]) amounted to 42 nM.
For `CC(C)CN(C[C@@H](O)[C@H](Cc1ccccc1)NC(=O)[C@H](C)CS(=O)(=O)N1CCCC1)S(=O)(=O)c1ccc2c(c1)OCO2` [Example 13], at HIV protease, 6 nM corresponded to half-maximal inhibition (IC50). Moreover, the EC50 in the experiment on HIV-1 in CEM cells (setting [1]) was 176 nM.
Take `CC(C)CN(C[C@@H](O)[C@H](Cc1ccccc1)NC(=O)[C@H](C)CS(=O)(=O)N(C)c1ccccc1)S(=O)(=O)c1ccc2c(c1)OCO2` [Example 14]: the IC50 against HIV protease came to 4 nM. The EC50 with HIV-1 in CEM cells (setting [1]) was found to be 85 nM.
For `CC(C)CN(C[C@@H](O)[C@H](Cc1ccccc1)NC(=O)[C@H](C)CS(=O)(=O)N(C)Cc1ccccc1)S(=O)(=O)c1ccc2c(c1)OCO2` [Example 15], the midpoint of inhibition against HIV protease, the IC50, lay at 4 nM.

One may read the IC50 as the concentration that inhibits the measured activity by half. The EC50 is the concentration giving half of the maximal effect.
